Usually fold induction stands for the signal under treatment as a multiple of the control signal. In general, EC50 refers to the midpoint of the concentration-response curve. A lower EC50 goes with greater potency.

The first test concerns E-cadherin expression in SW620 cells. Nature of the test: E-cadherin expression, in-cell Western (ICW), SW620 cells. The format is cell-based. As to conditions: Homo sapiens, SW-620, 24 h, change in expression level of E-cadherin in response to 10 μM compound, 24 hours, SW620 cells. The protocol: SW620 and H520 cells (5×10^4/100 μL) were seeded in a 96-well plate prior to treatment. Cells were treated with 10 μM concentration of synthesized compound in quadruplicate for 24 hours in RPMI 1640 supplemented medium and 100 μg/mL penicillin-streptomycin. The cells were then fixed with 100% methanol for 20 minutes at 4° C. The wells were then washed 2 times with PBS, permeabilized in 2% bovine serum albumin (BSA) and 0.2% TritonX-100 in PBS for 30 minutes at room temperature with gentle agitation, and blocked in LI-COR blocking buffer for 30 minutes at room temperature with gentle agitation. The cells were then incubated with the following primary antibodies: anti-E-Cadherin (1:500) and anti-α-Tubulin (1:1000) diluted in blocking buffer (1:1 dilution in PBS) for 2 hours at room temperature with gentle agitation. The cells were washed 4 times in PBS-T for 5 minutes each, and then incubated with the following secondary antibodies conjugated to a fluorescent entity: IRDye 800-conjugated goat anti-rabbit IgG (1:1000) and IRDye-700-conjugated goat anti-mouse IgG (1:2000) in blocking buffer (1:1 dilution in PBS) with gentle agitation for 1 h at room temperature. The cells were washed 4 times in PBS-T for 5 minutes each followed by a single wash with PBS. All liquid was removed from the wells and the plates were visualized and analyzed on the Odyssey IR imaging system (LI-COR Biosciences).
The assay was further optimized in the following manner. The cells were washed 2 times with PBS, fixed in 100% methanol at room temperature for 15 minutes, and again washed 2 times with PBS. The cells were then incubated with the following primary antibodies: anti-E-Cadherin (1:200) and anti-α-Tubulin (1:2000) diluted in ice cold 2% bovine serum albumin (BSA) and 0.2% TritonX-100 in PBS for 1 hour at room temperature with gentle agitation. The cells were washed 2 times in PBS and then incubated with the following secondary antibodies conjugated to a fluorescent entity: Licor 800-conjugated goat anti-rabbit IgG (1:2000) and IRDye-700-conjugated goat anti-mouse IgG (1:2000) in ice cold 2% BSA and 0.2% TritonX-100 in PBS with gentle agitation for 45 minutes at room temperature. The wells were washed 2 times in PBS, dried, and analyzed as previously mentioned.
N-Acetamidoalkyl-5-arylisoxazole-3-carboxamide analogs were synthesized as described above. Changes in expression level of E-cadherin in response to 10 μM compound in SW620 cells was determined in a cell-based functional assay as described above, and the data are shown in Table III. The compound number corresponds to the compound numbers used in Table II.
EC50 of inducement of E-cadherin expression in SW620 cells was determined in a cell-based functional assay as described above, and the data are shown in Table V. The compound number corresponds to the compound numbers used in Table IV.
`O=C(NCCCNC(=O)c1ccc(Br)o1)c1cc(-c2cccs2)on1` [Compound 74, N-(3-(5-bromofuran-2-carboxamido)propyl)-5-(thiophen-2-yl)isoxazole-3-carboxamide] displayed a fold induction at 10 µM of 3.06.

On to `O=C(NCCCNC(=O)c1cccs1)c1cc(-c2cccs2)on1` [Compound 75, 5-(thiophen-2-yl)-N-(3-(thiophene-2-carboxamido)propyl)isoxazole-3-carboxamide], for which the fold induction at 10 µM came out at 3.05.

`O=C(NCCCNC(=O)c1ccc(C(F)(F)F)o1)c1cc(-c2cccs2)on1` [Compound 76, 5-(thiophen-2-yl)-N-(3-(5-(trifluoromethyl)furan-2-carboxamido)propyl)isoxazole-3-carboxamide]: the fold induction at 10 µM is 2.68.

The molecule `Cc1ccc(C(=O)NCCCNC(=O)c2cc(-c3cccs3)on2)o1` [Compound 77, N-(3-(5-methylfuran-2-carboxamido)propyl)-5-(thiophen-2-yl)isoxazole-3-carboxamide] had a fold induction at 10 µM of 2.99.

`Cc1noc(C(=O)NCCCNC(=O)c2cc(-c3cccs3)on2)n1` [Compound 78, 3-methyl-N-(3-(5-(thiophen-2-yl)isoxazole-3-carboxamido)propyl)-1,2,4-oxadiazole-5-carboxamide] came in with a fold induction at 10 µM of 1.97.

For `Nc1ccc(C(=O)NCCCNC(=O)c2cc(-c3cccs3)on2)cn1` [Compound 79, N-(3-(6-aminonicotinamido)propyl)-5-(thiophen-2-yl)isoxazole-3-carboxamide], the fold induction at 10 µM was 3.58.

For `Cc1nc(C(=O)NCCCNC(=O)c2cc(-c3cccs3)on2)no1` [Compound 80, 5-methyl-N-(3-(5-(thiophen-2-yl)isoxazole-3-carboxamido)propyl)-1,2,4-oxadiazole-3-carboxamide], the fold induction at 10 µM came to 2.83.

`O=C(NCCCNC(=O)c1cccc(Cl)n1)c1cc(-c2cccs2)on1` [Compound 81, N-(3-(6-chloropicolinamido)propyl)-5-(thiophen-2-yl)isoxazole-3-carboxamide] registered a fold induction at 10 µM of 3.09.

For `N#Cc1ccnc(C(=O)NCCCNC(=O)c2cc(-c3cccs3)on2)c1` [Compound 82, N-(3-(4-cyanopicolinamido)propyl)-5-(thiophen-2-yl)isoxazole-3-carboxamide], the fold induction at 10 µM is 2.8.

`O=C(NCCCNC(=O)c1cncc(Cl)n1)c1cc(-c2cccs2)on1` [Compound 83, N-(3-(6-chloropyrazine-2-carboxamido)propyl)-5-(thiophen-2-yl)isoxazole-3-carboxamide] displayed a fold induction at 10 µM of 2.64.

Turning to `O=C(NCCCNC(=O)c1cc2ccccc2o1)c1cc(-c2cccs2)on1` [Compound 85, N-(3-(benzofuran-2-carboxamido)propyl)-5-(thiophen-2-yl)isoxazole-3-carboxamide], the fold induction at 10 µM was 3.26.

For `O=C(NCCCNC(=O)c1ccc2ccccc2n1)c1cc(-c2ccccc2)on1` [Compound 86, 5-phenyl-N-(3-(quinoline-2-carboxamido)propyl)isoxazole-3-carboxamide], the fold induction at 10 µM amounted to 3.48.

Molecule `O=C(NCCCNC(=O)c1cnc2ccccn12)c1cc(-c2ccccc2)on1` [Compound 87, N-(3-(imidazo[1,2-a]pyridine-3-carboxamido)propyl)-5-phenylisoxazole-3-carboxamide] registered a fold induction at 10 µM of 2.4.

`O=C(NCCCNC(=O)c1ccc(C(F)(F)F)o1)c1cc(-c2ccccc2)on1` [Compound 89, 5-phenyl-N-(3-(5-(trifluoromethyl)furan-2-carboxamido)propyl)isoxazole-3-carboxamide]: the fold induction at 10 µM worked out at 2.13.

Turning to `Cc1nc(C(=O)NCCCNC(=O)c2cc(-c3ccccc3)on2)no1` [Compound 91, 5-methyl-N-(3-(5-phenylisoxazole-3-carboxamido)propyl)-1,2,4-oxadiazole-3-carboxamide], the fold induction at 10 µM turned out to be 3.47.

For `O=C(NCCCNC(=O)c1cccc(Cl)n1)c1cc(-c2ccccc2)on1` [Compound 92, N-(3-(6-chloropicolinamido)propyl)-5-phenylisoxazole-3-carboxamide], the fold induction at 10 µM amounted to 3.13.

In turn, `N#Cc1ccnc(C(=O)NCCCNC(=O)c2cc(-c3ccccc3)on2)c1` [Compound 93, N-(3-(4-cyanopicolinamido)propyl)-5-phenylisoxazole-3-carboxamide] returned a fold induction at 10 µM of 2.88.

As to `O=C(NCCCNC(=O)c1cncc(Cl)n1)c1cc(-c2ccccc2)on1` [Compound 94, N-(3-(6-chloropyrazine-2-carboxamido)propyl)-5-phenylisoxazole-3-carboxamide], the fold induction at 10 µM stood at 3.69.

`O=C(Cc1c[nH]c2ccccc12)NCCCNC(=O)c1cc(-c2ccccc2)on1` [Compound 95, N-(3-(2-(1H-indol-3-yl)acetamido)propyl)-5-phenylisoxazole-3-carboxamide] registered a fold induction at 10 µM of 4.2.

Molecule `O=C(NCCCNC(=O)c1cc2ccccc2o1)c1cc(-c2ccccc2)on1` [Compound 96, N-(3-(benzofuran-2-carboxamido)propyl)-5-phenylisoxazole-3-carboxamide] displayed a fold induction at 10 µM of 2.58.

In the case of `Cc1cncc(C(=O)NCCCNC(=O)c2cc(-c3cccs3)on2)n1` [Compound 97, N-(3-(6-methylpyrazine-2-carboxamido)propyl)-5-(thiophen-2-yl)isoxazole-3-carboxamide], the fold induction at 10 µM was 3.82.

As to `CC(C)(C)c1ccc(C(=O)NCCCNC(=O)c2cc(-c3cccs3)on2)o1` [Compound 98, N-(3-(5-(tert-butyl)furan-2-carboxamido)propyl)-5-(thiophen-2-yl)isoxazole-3-carboxamide], the fold induction at 10 µM worked out at 3.65.

The molecule `O=C(NCCCNC(=O)c1ccc(Cl)o1)c1cc(-c2cccs2)on1` [Compound 99, N-(3-(5-chlorofuran-2-carboxamido)propyl)-5-(thiophen-2-yl)isoxazole-3-carboxamide] had a fold induction at 10 µM of 3.66.

In turn, `O=C(NCCCNC(=O)c1occc1-c1ccccc1)c1cc(-c2cccs2)on1` [Compound 100, N-(3-(3-phenylfuran-2-carboxamido)propyl)-5-(thiophen-2-yl)isoxazole-3-carboxamide] displayed a fold induction at 10 µM of 2.37.

With `CCc1ccc(C(=O)NCCCNC(=O)c2cc(-c3cccs3)on2)o1` [Compound 101, N-(3-(5-ethylfuran-2-carboxamido)propyl)-5-(thiophen-2-yl)isoxazole-3-carboxamide], the fold induction at 10 µM is 4.24.

`O=C(NCCCNC(=O)c1ccno1)c1cc(-c2cccs2)on1` [Compound 102, N-(3-(isoxazole-5-carboxamido)propyl)-5-(thiophen-2-yl)isoxazole-3-carboxamide] displayed a fold induction at 10 µM of 2.87.

Molecule `Cn1cnc(C(=O)NCCCNC(=O)c2cc(-c3cccs3)on2)c1` [Compound 103, N-(3-(1-methyl-1H-imidazole-4-carboxamido)propyl)-5-(thiophen-2-yl)isoxazole-3-carboxamide] yielded a fold induction at 10 µM of 3.02.

On to `O=C(NCCCNC(=O)c1cnn[nH]1)c1cc(-c2cccs2)on1` [Compound 104, N-(3-(1H-1,2,3-triazole-5-carboxamido)propyl)-5-(thiophen-2-yl)isoxazole-3-carboxamide], for which the fold induction at 10 µM was 3.13.

`O=C(NCCCNC(=O)c1cc(-c2cccs2)on1)c1cc(-c2ccccc2)ccn1` [Compound 106, N-(3-(4-phenylpicolinamido)propyl)-5-(thiophen-2-yl)isoxazole-3-carboxamide] had a fold induction at 10 µM of 3.69.

Molecule `O=C(NCCCNC(=O)c1cccc(C(F)(F)F)n1)c1cc(-c2cccs2)on1` [Compound 107, 5-(thiophen-2-yl)-N-(3-(6-(trifluoromethyl)picolinamido)propyl)isoxazole-3-carboxamide] yielded a fold induction at 10 µM of 4.15.

The same test, now with this note: Homo sapiens, SW-620; inducement of E-cadherin expression in SW620 cells.
In turn, `O=C(Cc1c[nH]c2ccccc12)NCCCNC(=O)c1cc(-c2ccccc2)on1` [Compound 95, N-(3-(2-(1H-indol-3-yl)acetamido)propyl)-5-phenylisoxazole-3-carboxamide] registered an EC50 of 2.57 µM.

The molecule `CCc1ccc(C(=O)NCCCNC(=O)c2cc(-c3cccs3)on2)o1` [Compound 101, N-(3-(5-ethylfuran-2-carboxamido)propyl)-5-(thiophen-2-yl)isoxazole-3-carboxamide] gave a concentration for a half-maximal effect (EC50) of 4.12 µM.

For the molecule `O=C(NCCCNC(=O)c1cccc(C(F)(F)F)n1)c1cc(-c2cccs2)on1` [Compound 107, 5-(thiophen-2-yl)-N-(3-(6-(trifluoromethyl)picolinamido)propyl)isoxazole-3-carboxamide], the half-maximal effective concentration (EC50) was determined as 6.95 µM.

The same test, now with this note: change in expression level of E-cadherin in response to 10 μM compound, 24 hours, SW620 cells.
Take `Nc1ccc(C(=O)NCCCNC(=O)c2cc(-c3ccccc3)on2)cn1` [Compound 90, N-(3-(6-aminonicotinamido)propyl)-5-phenylisoxazole-3-carboxamide]: the “fold change SW620 ICW” value is 2.50 fold.

The values above are taken from patent publication US9783510B2, “Small molecule mediated transcriptional induction of E-cadherin” (Vanderbilt University, priority 2014, dated 2017).
